Data on nine compounds can be found in patent publication US9796711B2, “Substituted pyrazolo[3,4-b]pyridin-6-carboxylic acids and method of use” (AbbVie S.àr.l., priority 2015, dated 2017).

The structures appear in SMILES notation.

Assay [1] deals with T1, ΔF508-CFTR (Homo sapiens, UniProt P13569, DEL508-508).
T1 construct: host or cells: CFBE41o-, doxycycline-inducible
The assay is described as follows: CFTR cell surface levels using HRP-tagged ΔF508-CFTR expressing CFBE cells, in the presence of a co-corrector. The settings on record: HRP-tagged ΔF508-CFTR expressing CFBE cells, in the presence of 3 μM co-corrector; for EC50: read-out: EC50. It counts as cell-based. Summed up:
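Cells were seeded with 0.5 μg/mL doxycycline and held 68 h at 37 °C. Test compounds plus 3 μM co-corrector (final 0.1% DMSO) were then added for 20 h at 33 °C. Washed cells received HRP substrate, and luminescence was normalized between DMSO and 3 μM co-corrector controls.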

Assay [2] deals with T1, ΔF508-CFTR. The assay is described as follows: CFTR cell surface levels using HRP-tagged ΔF508-CFTR expressing CFBE cells, intrinsic corrector capacity. The class given is cell-based. The note with it: for EC50: read-out: EC50. The method, boiled down: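 Here the cells express ΔF508-CFTR with horseradish peroxidase inserted in extracellular loop 4, so only rescued channel at the surface gives luminescent signal. Compounds act on their own, 20 h at the reduced temperature of 33 °C; values are percent activity relative to DMSO and a 3 μM corrector.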

Setting [3] is: HRP-tagged ΔF508-CFTR CFBE41o- cells, compounds alone (intrinsic corrector capacity), 20 hours at 33° C., positive control 3 μM corrector.
The mark [4] stands for this setting: HRP-tagged ΔF508-CFTR CFBE41o- cells, compounds alone (intrinsic corrector capacity), 20 hours at 33° C.
The mark [5] stands for this setting: HRP-tagged ΔF508-CFTR expressing CFBE cells, intrinsic corrector capacity (no co-corrector), 33° C., 20 hours.

T1 sequence (P13569 with tags, fused parts or gaps DEL508-508): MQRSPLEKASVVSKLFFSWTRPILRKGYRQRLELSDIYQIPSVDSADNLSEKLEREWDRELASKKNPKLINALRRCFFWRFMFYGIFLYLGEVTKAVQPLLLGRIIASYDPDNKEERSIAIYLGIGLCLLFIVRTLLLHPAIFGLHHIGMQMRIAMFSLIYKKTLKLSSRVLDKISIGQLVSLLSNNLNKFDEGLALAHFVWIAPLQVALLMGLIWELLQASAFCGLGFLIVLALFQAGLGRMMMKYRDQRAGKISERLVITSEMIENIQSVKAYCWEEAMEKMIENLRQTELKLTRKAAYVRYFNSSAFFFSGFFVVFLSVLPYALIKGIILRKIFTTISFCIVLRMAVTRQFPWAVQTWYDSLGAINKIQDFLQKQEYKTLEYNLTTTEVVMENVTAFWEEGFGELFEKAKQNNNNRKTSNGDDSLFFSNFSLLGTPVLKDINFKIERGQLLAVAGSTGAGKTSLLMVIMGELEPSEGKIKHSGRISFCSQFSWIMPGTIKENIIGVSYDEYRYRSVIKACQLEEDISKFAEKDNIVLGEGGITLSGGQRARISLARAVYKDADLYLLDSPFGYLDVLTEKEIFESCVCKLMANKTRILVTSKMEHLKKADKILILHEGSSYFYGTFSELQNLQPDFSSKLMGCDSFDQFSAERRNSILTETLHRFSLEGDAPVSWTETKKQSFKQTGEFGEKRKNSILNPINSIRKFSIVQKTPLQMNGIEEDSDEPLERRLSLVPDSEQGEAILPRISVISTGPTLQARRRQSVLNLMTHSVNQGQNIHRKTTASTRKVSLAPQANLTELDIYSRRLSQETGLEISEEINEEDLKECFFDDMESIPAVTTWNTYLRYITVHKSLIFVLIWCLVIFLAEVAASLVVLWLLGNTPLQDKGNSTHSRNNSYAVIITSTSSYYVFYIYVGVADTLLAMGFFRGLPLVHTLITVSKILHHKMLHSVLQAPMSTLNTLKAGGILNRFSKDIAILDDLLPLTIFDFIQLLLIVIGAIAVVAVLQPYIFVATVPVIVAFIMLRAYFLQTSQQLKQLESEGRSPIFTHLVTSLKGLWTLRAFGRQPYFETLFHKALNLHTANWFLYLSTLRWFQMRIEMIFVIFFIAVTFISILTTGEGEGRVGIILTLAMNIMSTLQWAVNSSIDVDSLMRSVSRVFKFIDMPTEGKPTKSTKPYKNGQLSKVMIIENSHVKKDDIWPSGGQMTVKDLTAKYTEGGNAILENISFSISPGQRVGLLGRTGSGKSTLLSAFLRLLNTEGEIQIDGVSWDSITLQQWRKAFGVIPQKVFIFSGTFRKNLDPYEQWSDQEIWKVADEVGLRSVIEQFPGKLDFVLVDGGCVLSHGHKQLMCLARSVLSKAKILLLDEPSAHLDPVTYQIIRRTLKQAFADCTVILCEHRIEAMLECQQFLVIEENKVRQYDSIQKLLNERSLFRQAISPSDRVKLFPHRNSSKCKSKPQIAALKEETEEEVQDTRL

As for `Cc1nn(-c2ccccc2)c2nc(C(=O)O)cc(-c3ccc(N4CC(C)OC(C)C4)cc3)c12` (stereo not drawn) [compound 114, 4-[4-(2,6-dimethylmorpholin-4-yl)phenyl]-3-methyl-1-phenyl-1H-pyrazolo[3,4-b]pyridine-6-carboxylic acid], the results for the “% Activation” value at ΔF508-CFTR [1] and at ΔF508-CFTR [2] (setting [3]) were 460.85% and 251.05%, respectively. Moreover, the EC50 worked out at 1240 nM on ΔF508-CFTR [1] and 806 nM on ΔF508-CFTR [2] (setting [4]).

For `COC1CCN(c2cc(C(=O)O)nc3c2c(C2CCC2)nn3-c2ccccc2)CC1` [compound 358, 3-cyclobutyl-4-(4-methoxypiperidin-1-yl)-1-phenyl-1H-pyrazolo[3,4-b]pyridine-6-carboxylic acid], the “% Activation” value at ΔF508-CFTR [1] is recorded as 370.47%; on ΔF508-CFTR [2] (setting [3]), 205.07%. The EC50 on ΔF508-CFTR [1] came to 206 nM; on ΔF508-CFTR [2] (setting [4]), 410 nM.

Take `COCC(C)N1CCN(c2cc(C(=O)O)nc3c2c(C(C)C)nn3-c2ccc(F)cc2)CC1` (stereo not drawn) [compound 793, 1-(4-fluorophenyl)-4-[4-(1-methoxypropan-2-yl)piperazin-1-yl]-3-(propan-2-yl)-1H-pyrazolo[3,4-b]pyridine-6-carboxylic acid]: at ΔF508-CFTR [1], the “% Activation” value is recorded as 363.5% and the EC50 stood at 1670 nM. Besides, at ΔF508-CFTR [2] (setting [5]), the “% Activation” value was 157.7% and the EC50 is 1670 nM.

For `CC(C)c1nn(-c2ccc(F)cc2)c2nc(C(=O)O)cc(N3CCN(C(=O)N(C)C)CC3)c12` [compound 774, 4-[4-(dimethylcarbamoyl)piperazin-1-yl]-1-(4-fluorophenyl)-3-(propan-2-yl)-1H-pyrazolo[3,4-b]pyridine-6-carboxylic acid], the figures for the “% Activation” value at ΔF508-CFTR [1] and at ΔF508-CFTR [2] (setting [5]) were 375.6% and 163%, respectively. Also, the EC50 on ΔF508-CFTR [1] and on ΔF508-CFTR [2] (setting [5]) was 1670 nM each time.

Turning to `COC1CCN(c2ccc(-c3cc(C(=O)O)nc4c3c(C(C)C)nn4C3CCCCC3)cn2)C1` (stereo not drawn) [compound 224, 1-cyclohexyl-4-[6-(3-methoxypyrrolidin-1-yl)pyridin-3-yl]-3-(propan-2-yl)-1H-pyrazolo[3,4-b]pyridine-6-carboxylic acid], the results for the “% Activation” value at ΔF508-CFTR [1] and at ΔF508-CFTR [2] (setting [3]) were 396.65% and 189.6%, respectively. For the same compound, the EC50 on ΔF508-CFTR [1] is 896 nM; on ΔF508-CFTR [2] (setting [4]), 1180 nM.

On to `Cc1nn(-c2ccccc2)c2nc(C(=O)O)cc(N3CC4(CCOC4)C3)c12` [compound 306, 3-methyl-4-(6-oxa-2-azaspiro[3.4]octan-2-yl)-1-phenyl-1H-pyrazolo[3,4-b]pyridine-6-carboxylic acid], for which the “% Activation” value on ΔF508-CFTR [1] is listed as 147.8%; at ΔF508-CFTR [2] (setting [3]) it was 22.69%. In addition, the EC50 worked out at 2510 nM at ΔF508-CFTR [1] and 7500 nM at ΔF508-CFTR [2] (setting [4]).

Take `Cc1nn(-c2ccccc2)c2nc(C(=O)O)cc(N3CCCCC3=O)c12` [compound 150, 3-methyl-4-(2-oxopiperidin-1-yl)-1-phenyl-1H-pyrazolo[3,4-b]pyridine-6-carboxylic acid]: the “% Activation” value worked out at 115.3% on ΔF508-CFTR [1] and 6.341% on ΔF508-CFTR [2] (setting [3]). Besides, the half-maximal effective concentration (EC50) on ΔF508-CFTR [1] and on ΔF508-CFTR [2] (setting [4]) was > 10000 nM throughout.

With `O=C(O)c1cc(N2CCOC(CN3CCCCC3)C2)c2c(C3CCC3)nn(-c3ccccc3)c2n1` (stereo not drawn) [compound 556, 3-cyclobutyl-1-phenyl-4-{2-[(piperidin-1-yl)methyl]morpholin-4-yl}-1H-pyrazolo[3,4-b]pyridine-6-carboxylic acid], on ΔF508-CFTR [1], the “% Activation” value was determined as 324% and the EC50 turned out to be 682 nM. For the same compound, on ΔF508-CFTR [2] (setting [5]), the “% Activation” value is reported as 140.1% and the concentration giving a half-maximal response (EC50) amounted to 838 nM.

On to `Cc1nn(-c2ccccc2)c2nc(C(=O)O)cc(N3CCN(S(C)(=O)=O)CC3)c12` [compound 146, 4-[4-(methanesulfonyl)piperazin-1-yl]-3-methyl-1-phenyl-1H-pyrazolo[3,4-b]pyridine-6-carboxylic acid], for which the “% Activation” value at ΔF508-CFTR [1] is recorded as 134.9%; at ΔF508-CFTR [2] (setting [3]), 8.92%. Moreover, the EC50 on ΔF508-CFTR [1] and on ΔF508-CFTR [2] (setting [4]) was > 10000 nM in each case.
